Like-named read-outs stand apart in the source and are kept apart here.
Experiments:
[1] = 30° C.±2° C./RH 65%±5%
Protocol: (§1) The crystal resulting from Example 1 was placed under acceleration conditions for 6 months.
Conditions: 30° C.±2° C./RH 65%±5%
(§2) Package: Two layers of low density polyethylene bag for medicinal use were sealed by hot-melt respectively, and desiccant was added. The bag was sealed and packaged with a pharmaceutical composite film bag of polyester/aluminum/polyamide/cast polypropylene.

[2] = 21° C.±2° C./RH 45%±5%
Protocol: as §1
Conditions: 21° C.±2° C./RH 45%±5%
as §2

[3] = not given; remark: listed apart in the source

SMILES: CCOc1ccc(Cc2cc([C@@H]3O[C@H](CO)[C@@H](O)[C@H](O)[C@H]3O)ccc2Cl)cc1 [crystal of the present invention, 2-chloro-5-(β-D-glucopyranosyl-1-yl)-4′-ethoxy-diphenylmethane]
- transformation of the crystal (XRPD) (after grinding): does not result in transformation
- transformation of the crystal (XRPD) (after pressing into a tablet, FIG. 2): no transformation

SMILES: CCOc1ccc(Cc2cc([C@@H]3O[C@H](CO)[C@@H](O)[C@H](O)[C@H]3O)ccc2Cl)cc1 [Example 1, 2-chloro-5-(β-D-glucopyranosyl-1-yl)-4′-ethoxy-diphenylmethane]
- HPLC Identification ([1]; 1 Month): accordance
- Moisture Content (%) ([1]; 1 Month): 0.82%
- Related Substances Maximum Single Impurity (%) ([1]; 1 Month): 0.03%
- Related Substances Total Impurity (%) ([1]; 1 Month): 0.10%
- Specific Rotation ([1]; 1 Month): +13.2°
- Total Content (%) ([1]; 1 Month): 99.6%
- XRPD ([1]; 1 Month): accordance
- HPLC Identification ([1]; 2 Months): accordance
- Moisture Content (%) ([1]; 2 Months): 0.81%
- Related Substances Maximum Single Impurity (%) ([1]; 2 Months): 0.03%
- Related Substances Total Impurity (%) ([1]; 2 Months): 0.11%
- Specific Rotation ([1]; 2 Months): +13.0°
- Total Content (%) ([1]; 2 Months): 99.7%
- XRPD ([1]; 2 Months): accordance
- HPLC Identification ([1]; 3 Months): accordance
- Moisture Content (%) ([1]; 3 Months): 0.77%
- Related Substances Maximum Single Impurity (%) ([1]; 3 Months): 0.03%
- Related Substances Total Impurity (%) ([1]; 3 Months): 0.10%
- Specific Rotation ([1]; 3 Months): +13.4°
- Total Content (%) ([1]; 3 Months): 99.3%
- XRPD ([1]; 3 Months): accordance
- HPLC Identification ([1]; 6 Months): accordance
- Moisture Content (%) ([1]; 6 Months): 0.81%
- Related Substances Maximum Single Impurity (%) ([1]; 6 Months): 0.03%
- Related Substances Total Impurity (%) ([1]; 6 Months): 0.13%
- Specific Rotation ([1]; 6 Months): +13.3°
- Total Content (%) ([1]; 6 Months): 99.5%
- XRPD ([1]; 6 Months): accordance
- quality indicators of the sample ([1]; 6 Months): did not change significantly
- HPLC Identification ([1]; time 0): accordance
- Moisture Content (%) ([1]; time 0): 0.76%
- Related Substances Maximum Single Impurity (%) ([1]; time 0): 0.04%
- Related Substances Total Impurity (%) ([1]; time 0): 0.11%
- Specific Rotation ([1]; time 0): +13.3°
- Total Content (%) ([1]; time 0): 99.4%
- XRPD ([1]; time 0): accordance
- HPLC Identification ([2]; 3 Months): accordance
- Moisture Content (%) ([2]; 3 Months): 0.77%
- Related Substances Maximum Single Impurity (%) ([2]; 3 Months): 0.03%
- Related Substances Total Impurity (%) ([2]; 3 Months): 0.11%
- Specific Rotation ([2]; 3 Months): +13.1°
- Total Content (%) ([2]; 3 Months): 99.8%
- XRPD ([2]; 3 Months): accordance
- HPLC Identification ([2]; 6 Months): accordance
- Moisture Content (%) ([2]; 6 Months): 0.80%
- Related Substances Maximum Single Impurity (%) ([2]; 6 Months): 0.03%
- Related Substances Total Impurity (%) ([2]; 6 Months): 0.13%
- Specific Rotation ([2]; 6 Months): +12.9°
- Total Content (%) ([2]; 6 Months): 99.5%
- XRPD ([2]; 6 Months): accordance
- quality indicators of the sample ([2]; 6 Months): did not change significantly
- HPLC Identification ([2]; time 0): accordance
- Moisture Content (%) ([2]; time 0): 0.76%
- Related Substances Maximum Single Impurity (%) ([2]; time 0): 0.04%
- Related Substances Total Impurity (%) ([2]; time 0): 0.11%
- Specific Rotation ([2]; time 0): +13.3°
- Total Content (%) ([2]; time 0): 99.4%
- XRPD ([2]; time 0): accordance
- hygroscope ([3]; High humidity test 25° C./RH 75%, day 5): 4.83%
- hygroscope ([3]; High humidity test 25° C./RH 75%, day 10): 4.84%
- hygroscope ([3]; High humidity test 25° C./RH 95%, day 5): 6.09%
- hygroscope ([3]; High humidity test 25° C./RH 95%, day 10): 6.71%

Reference: patent publication US9550747B2, “Dapagliflozin crystalline form and preparation method thereof” (Jiangsu Hansoh Pharmaceutical Group Co., Ltd., priority 2014, dated 2017)
